Test results published in ChEMBL document CHEMBL1146200, “In vitro activity of aurein 1.2 alone and in combination with antibiotics against gram-positive nosocomial cocci” (Antimicrob Agents Chemother, 2007).
≈ marks a conversion by molar mass, not a printed value. Non-standard residues stand in square brackets, D forms with d. Residues, ends and D or L forms follow the SMILES beside them. Phg = N[C@H](C(=O)O)c1ccccc1

Experiments:
Streptococcus pyogenes = test: Antimicrobial activity against Streptococcus pyogenes ATCC 19615; format: functional; settings: for MIC50 / MIC90: Streptococcus pyogenes, ATCC 19615
Staphylococcus aureus [1] = test: Antimicrobial activity against […] Staphylococcus aureus ATCC 43300; format: functional; settings: for MIC50 / MIC90: Staphylococcus aureus, ATCC 43300
Enterococcus faecalis [2] = test: Antimicrobial activity against vancomycin-susceptible Enterococcus faecalis ATCC 29212; format: functional; settings: for MIC50 / MIC90: Enterococcus faecalis, ATCC 29212
Staphylococcus aureus [3] = test: Antimicrobial activity against […] Staphylococcus aureus ATCC 29213; format: functional; settings: for MIC50 / MIC90: Staphylococcus aureus, ATCC 29213
Enterococcus faecalis [4] = test: Antimicrobial activity against vancomycin-resistant Enterococcus faecalis ATCC 51299; format: functional; settings: for MIC50 / MIC90: Enterococcus faecalis, ATCC 51299
A549 = test: Cytotoxicity against human A549 cells; format: cell-based

Structure (SMILES): CC[C@H](C)[C@H](NC(=O)[C@H](CCCCN)NC(=O)[C@H](CCCCN)NC(=O)[C@@H](NC(=O)[C@@H](NC(=O)[C@H](CC(=O)O)NC(=O)[C@H](Cc1ccccc1)NC(=O)[C@H](CC(C)C)NC(=O)CN)[C@@H](C)CC)[C@@H](C)CC)C(=O)N[C@@H](C)C(=O)N[C@@H](CCC(=O)O)C(=O)N[C@@H](CO)C(=O)N[C@H](C(N)=O)c1ccccc1 (H-GLFDIIKKIAES[Phg]-NH2)
- MBC50 (Streptococcus pyogenes): 4 µg/mL (≈ 2.73 µM)
- MBC90 (Streptococcus pyogenes): 8 µg/mL (≈ 5.46 µM)
- MIC50 (Streptococcus pyogenes): 2 µg/mL (≈ 1.36 µM)
- MIC90 (Streptococcus pyogenes): 4 µg/mL (≈ 2.73 µM)
- MBC50 (Staphylococcus aureus [1]): 8 µg/mL (≈ 5.46 µM)
- MBC90 (Staphylococcus aureus [1]): 16 µg/mL (≈ 10.9 µM)
- MIC50 (Staphylococcus aureus [1]): 4 µg/mL (≈ 2.73 µM)
- MIC90 (Staphylococcus aureus [1]): 8 µg/mL (≈ 5.46 µM)
- MBC50 (Enterococcus faecalis [2]): 16 µg/mL (≈ 10.9 µM)
- MBC90 (Enterococcus faecalis [2]): 32 µg/mL (≈ 21.8 µM)
- MIC50 (Enterococcus faecalis [2]): 8 µg/mL (≈ 5.46 µM)
- MIC90 (Enterococcus faecalis [2]): 16 µg/mL (≈ 10.9 µM)
- MBC50 (Staphylococcus aureus [3]): 8 µg/mL (≈ 5.46 µM)
- MBC90 (Staphylococcus aureus [3]): 16 µg/mL (≈ 10.9 µM)
- MIC50 (Staphylococcus aureus [3]): 4 µg/mL (≈ 2.73 µM)
- MIC90 (Staphylococcus aureus [3]): 8 µg/mL (≈ 5.46 µM)
- MBC50 (Enterococcus faecalis [4]): 16 µg/mL (≈ 10.9 µM)
- MBC90 (Enterococcus faecalis [4]): 32 µg/mL (≈ 21.8 µM)
- MIC50 (Enterococcus faecalis [4]): 8 µg/mL (≈ 5.46 µM)
- MIC90 (Enterococcus faecalis [4]): 16 µg/mL (≈ 10.9 µM)
- Activity (A549): 2%

Structure (SMILES): CC[C@H]1OC(=O)[C@H](C)[C@@H](O[C@H]2C[C@@](C)(OC)[C@@H](O)[C@H](C)O2)[C@H](C)[C@@H](O[C@@H]2O[C@H](C)C[C@H](N(C)C)[C@H]2O)[C@](C)(OC)C[C@@H](C)C(=O)[C@H](C)[C@@H](O)[C@]1(C)O [CLARITHROMYCIN]
- MBC50 (Streptococcus pyogenes): 8 µg/mL (≈ 10.7 µM)
- MBC90 (Streptococcus pyogenes): 32 µg/mL (≈ 42.8 µM)
- MIC50 (Streptococcus pyogenes): 2 µg/mL (≈ 2.67 µM)
- MIC90 (Streptococcus pyogenes): 8 µg/mL (≈ 10.7 µM)
- MBC50 (Staphylococcus aureus [1]): 16 µg/mL (≈ 21.4 µM)
- MBC90 (Staphylococcus aureus [1]): 64 µg/mL (≈ 85.6 µM)
- MIC50 (Staphylococcus aureus [1]): 2 µg/mL (≈ 2.67 µM)
- MIC90 (Staphylococcus aureus [1]): 8 µg/mL (≈ 10.7 µM)
- MBC50 (Enterococcus faecalis [2]): 16 µg/mL (≈ 21.4 µM)
- MBC90 (Enterococcus faecalis [2]): 128 µg/mL (≈ 171 µM)
- MIC50 (Enterococcus faecalis [2]): 8 µg/mL (≈ 10.7 µM)
- MIC90 (Enterococcus faecalis [2]): 32 µg/mL (≈ 42.8 µM)
- MBC50 (Staphylococcus aureus [3]): 32 µg/mL (≈ 42.8 µM)
- MIC50 (Staphylococcus aureus [3]): 4 µg/mL (≈ 5.35 µM)
- MIC90 (Staphylococcus aureus [3]): 16 µg/mL (≈ 21.4 µM)
- MBC50 (Enterococcus faecalis [4]): 32 µg/mL (≈ 42.8 µM)
- MIC50 (Enterococcus faecalis [4]): 16 µg/mL (≈ 21.4 µM)
- MIC90 (Enterococcus faecalis [4]): 64 µg/mL (≈ 85.6 µM)

Structure (SMILES): C[C@@H](O)[C@H]1C(=O)N2C(C(=O)O)=C(SCCNC=N)C[C@H]12 [IMIPENEM ANHYDROUS]
- MBC50 (Streptococcus pyogenes): 1 µg/mL (≈ 3.34 µM)
- MBC90 (Streptococcus pyogenes): 4 µg/mL (≈ 13.4 µM)
- MIC50 (Streptococcus pyogenes): 0.5 µg/mL (≈ 1.67 µM)
- MIC90 (Streptococcus pyogenes): 1 µg/mL (≈ 3.34 µM)
- MBC50 (Staphylococcus aureus [1]): 4 µg/mL (≈ 13.4 µM)
- MBC90 (Staphylococcus aureus [1]): 16 µg/mL (≈ 53.4 µM)
- MIC50 (Staphylococcus aureus [1]): 1 µg/mL (≈ 3.34 µM)
- MIC90 (Staphylococcus aureus [1]): 4 µg/mL (≈ 13.4 µM)
- MBC50 (Enterococcus faecalis [2]): 16 µg/mL (≈ 53.4 µM)
- MBC90 (Enterococcus faecalis [2]): 64 µg/mL (≈ 214 µM)
- MIC50 (Enterococcus faecalis [2]): 4 µg/mL (≈ 13.4 µM)
- MIC90 (Enterococcus faecalis [2]): 16 µg/mL (≈ 53.4 µM)
- MBC50 (Staphylococcus aureus [3]): 64 µg/mL (≈ 214 µM)
- MBC90 (Staphylococcus aureus [3]): 256 µg/mL (≈ 855 µM)
- MIC50 (Staphylococcus aureus [3]): 16 µg/mL (≈ 53.4 µM)
- MIC90 (Staphylococcus aureus [3]): 128 µg/mL (≈ 428 µM)
- MBC50 (Enterococcus faecalis [4]): 32 µg/mL (≈ 107 µM)
- MBC90 (Enterococcus faecalis [4]): 128 µg/mL (≈ 428 µM)
- MIC50 (Enterococcus faecalis [4]): 16 µg/mL (≈ 53.4 µM)
- MIC90 (Enterococcus faecalis [4]): 32 µg/mL (≈ 107 µM)

Structure (SMILES): CC(=O)NC[C@H]1CN(c2ccc(N3CCOCC3)c(F)c2)C(=O)O1 [LINEZOLID]
- MBC50 (Streptococcus pyogenes): 1 µg/mL (≈ 2.96 µM)
- MBC90 (Streptococcus pyogenes): 2 µg/mL (≈ 5.93 µM)
- MIC50 (Streptococcus pyogenes): 0.5 µg/mL (≈ 1.48 µM)
- MIC90 (Streptococcus pyogenes): 1 µg/mL (≈ 2.96 µM)
- MBC50 (Staphylococcus aureus [1]): 0.5 µg/mL (≈ 1.48 µM)
- MBC90 (Staphylococcus aureus [1]): 2 µg/mL (≈ 5.93 µM)
- MIC50 (Staphylococcus aureus [1]): 0.5 µg/mL (≈ 1.48 µM)
- MIC90 (Staphylococcus aureus [1]): 2 µg/mL (≈ 5.93 µM)
- MBC50 (Enterococcus faecalis [2]): 2 µg/mL (≈ 5.93 µM)
- MBC90 (Enterococcus faecalis [2]): 4 µg/mL (≈ 11.9 µM)
- MIC50 (Enterococcus faecalis [2]): 1 µg/mL (≈ 2.96 µM)
- MIC90 (Enterococcus faecalis [2]): 2 µg/mL (≈ 5.93 µM)
- MIC50 (Staphylococcus aureus [3]): 0.5 µg/mL (≈ 1.48 µM)
- MIC90 (Staphylococcus aureus [3]): 2 µg/mL (≈ 5.93 µM)
- MBC50 (Enterococcus faecalis [4]): 4 µg/mL (≈ 11.9 µM)
- MIC50 (Enterococcus faecalis [4]): 1 µg/mL (≈ 2.96 µM)
- MIC90 (Enterococcus faecalis [4]): 2 µg/mL (≈ 5.93 µM)

Structure (SMILES): CN(C)c1ccc(O)c2c1C[C@H]1C[C@H]3[C@H](N(C)C)C(O)=C(C(N)=O)C(=O)[C@@]3(O)C(O)=C1C2=O [MINOCYCLINE]
- MBC50 (Streptococcus pyogenes): 8 µg/mL (≈ 17.5 µM)
- MBC90 (Streptococcus pyogenes): 16 µg/mL (≈ 35 µM)
- MIC50 (Streptococcus pyogenes): 4 µg/mL (≈ 8.74 µM)
- MIC90 (Streptococcus pyogenes): 8 µg/mL (≈ 17.5 µM)
- MBC50 (Staphylococcus aureus [1]): 8 µg/mL (≈ 17.5 µM)
- MBC90 (Staphylococcus aureus [1]): 32 µg/mL (≈ 69.9 µM)
- MIC50 (Staphylococcus aureus [1]): 4 µg/mL (≈ 8.74 µM)
- MIC90 (Staphylococcus aureus [1]): 8 µg/mL (≈ 17.5 µM)
- MBC50 (Enterococcus faecalis [2]): 16 µg/mL (≈ 35 µM)
- MBC90 (Enterococcus faecalis [2]): 64 µg/mL (≈ 140 µM)
- MIC50 (Enterococcus faecalis [2]): 8 µg/mL (≈ 17.5 µM)
- MIC90 (Enterococcus faecalis [2]): 16 µg/mL (≈ 35 µM)
- MIC50 (Staphylococcus aureus [3]): 4 µg/mL (≈ 8.74 µM)
- MIC90 (Staphylococcus aureus [3]): 8 µg/mL (≈ 17.5 µM)
- MIC50 (Enterococcus faecalis [4]): 16 µg/mL (≈ 35 µM)
- MIC90 (Enterococcus faecalis [4]): 32 µg/mL (≈ 69.9 µM)

Structure (SMILES): CN[C@H](CC(C)C)C(=O)N[C@H]1C(=O)N[C@@H](CC(N)=O)C(=O)N[C@H]2C(=O)N[C@H]3C(=O)N[C@H](C(=O)N[C@H](C(=O)O)c4cc(O)cc(O)c4-c4cc3ccc4O)[C@H](O)c3ccc(c(Cl)c3)Oc3cc2cc(c3O[C@@H]2O[C@H](CO)[C@@H](O)[C@H](O)[C@H]2O[C@H]2C[C@](C)(N)[C@H](O)[C@H](C)O2)Oc2ccc(cc2Cl)[C@H]1O [VANCOMYCIN]
- MBC50 (Streptococcus pyogenes): 1 µg/mL (≈ 0.69 µM)
- MBC90 (Streptococcus pyogenes): 2 µg/mL (≈ 1.38 µM)
- MIC50 (Streptococcus pyogenes): 0.5 µg/mL (≈ 0.345 µM)
- MIC90 (Streptococcus pyogenes): 1 µg/mL (≈ 0.69 µM)
- MBC50 (Staphylococcus aureus [1]): 1 µg/mL (≈ 0.69 µM)
- MBC90 (Staphylococcus aureus [1]): 2 µg/mL (≈ 1.38 µM)
- MIC50 (Staphylococcus aureus [1]): 1 µg/mL (≈ 0.69 µM)
- MIC90 (Staphylococcus aureus [1]): 2 µg/mL (≈ 1.38 µM)
- MBC50 (Enterococcus faecalis [2]): 2 µg/mL (≈ 1.38 µM)
- MBC90 (Enterococcus faecalis [2]): 4 µg/mL (≈ 2.76 µM)
- MIC50 (Enterococcus faecalis [2]): 1 µg/mL (≈ 0.69 µM)
- MIC90 (Enterococcus faecalis [2]): 2 µg/mL (≈ 1.38 µM)
- MBC50 (Staphylococcus aureus [3]): 1 µg/mL (≈ 0.69 µM)
- MBC90 (Staphylococcus aureus [3]): 2 µg/mL (≈ 1.38 µM)
- MIC50 (Staphylococcus aureus [3]): 1 µg/mL (≈ 0.69 µM)
- MIC90 (Staphylococcus aureus [3]): 2 µg/mL (≈ 1.38 µM)
- MBC50 (Enterococcus faecalis [4]): 64 µg/mL (≈ 44.2 µM)
- MBC90 (Enterococcus faecalis [4]): 256 µg/mL (≈ 177 µM)
- MIC50 (Enterococcus faecalis [4]): 32 µg/mL (≈ 22.1 µM)
- MIC90 (Enterococcus faecalis [4]): 64 µg/mL (≈ 44.2 µM)
